For one assay, the target named is T1, glucagon receptor (GCGR) (Homo sapiens, UniProt P47871).
T1 construct: expressed in transfected cells; host or cells: CHO-K1
The assay is described as follows: Glucagon cAMP inhibition assay (Cisbio cAMP Dynamic 2 HTRF). The conditions noted are these: GCGR overexpressed CHO-K1 cells or human primary hepatocytes (not specified); glucagon at EC50. It is filed as cell-based. As to the method: Glucagon eAMP Inhibition Assay
Downstream secondary messenger eAMP induced by glucagon was detected by Cisbio cAMP Dynamic 2 kit. Testing compounds were each prepared as a dimethyl sulfoxide (DMSO) solution at the concentration of 10 mM. To evaluate the potency of compounds in inhibiting the cAMP production, glucagon receptor (GCGR) overexpressed CHO-K1 cells or human primary hepatocytes were treated with compounds with a serial dilution. The cells were re-suspended in Hank's Balanced Salt solution (HBSS) contained 0.1% (w/v) bovine serum albumin and 800 nM 3-isobutyl-1-methylxanthine (IBMX) and seeded into low volume, 384 wells white plate. The diluted compounds were then added into the plate for 30 minutes pre-incubation where the final DMSO concentration was 1%. The cells were stimulated with glucagon at the concentration equaled to EC50 (an indicium of the concentration of a drag that gives half-maximal response) for 30 minutes at room temperature. After incubation, lysis buffer contain cAMP antibody and fluorescence acceptor were added into each well for additional 60 minutes incubation. Results were recorded by Molecular Devices SpectraMax Paradigm with the HTRF Detection Cartridges and the IC50 value of each compound in inhibiting the cAMP production was calculated with non-linear regression based on the amount of cAMP production.
On the technique in general: TR-FRET usually uses a lanthanide donor and a delayed reading to cut background.

The target of the next assay is GCGR (Homo sapiens, UniProt P47871). Briefly: I125-glucagon binding assay (competition, GCGR membrane fractions). Further details: expressed in transfected cells; host or cells: CHO-K1. The conditions noted are these: competition with I125-glucagon 0.0625 nM; membrane fractions from GCGR overexpressed CHO-K1 cells. How it is done:
I^125-Glucagon Binding Assay
The binding affinity of each compound was evaluated by a competition assay with I^125-glucagon. GCGR membrane fractions were obtained from GCGR overexpressed CHO-K1 cells as a stock of 1 mg/ml concentration. To evaluate the IC50 of compounds binding to GCGR, GCGR membrane fractions were treated with compounds with a serial dilution. The membrane fractions were diluted to 7.5 microgram per well in 70 microliter assay buffer contained 50 mM Tris pH 7.4 and 0.5% (w/v) bovine serum albumin and added into 96 wells plate. The membrane fractions were then mixed with 10 microliter diluted compounds. After 5 minutes pre-incubation, 20 microliter I^125 labeled glucagon (Perkin Elmer) was added into each well at the final concentration of 0.0625 nM. The assay mixtures were incubated at 25° C. for 30 minutes and then transferred onto the Millipore Multiscreen GF/B Plate coated with 0.5% (w/v) Polyethyleneimine. The filter plate was washed with wash buffer contained 50 mM Tris pH 7.4 for 2 times, 300 microliter each time. The residual isotope was detected by Hidex CHAMELEON V micro-beta counter and the IC50 value of each compound binding to GCGR was calculated with non-linear regression.

Structures are written as SMILES. A value given as a limit tells only on which side of the number the result lay.

In general, IC50 refers to the point on the concentration scale where inhibition reaches its midpoint.

T1 sequence (P47871 26-477, species assumed): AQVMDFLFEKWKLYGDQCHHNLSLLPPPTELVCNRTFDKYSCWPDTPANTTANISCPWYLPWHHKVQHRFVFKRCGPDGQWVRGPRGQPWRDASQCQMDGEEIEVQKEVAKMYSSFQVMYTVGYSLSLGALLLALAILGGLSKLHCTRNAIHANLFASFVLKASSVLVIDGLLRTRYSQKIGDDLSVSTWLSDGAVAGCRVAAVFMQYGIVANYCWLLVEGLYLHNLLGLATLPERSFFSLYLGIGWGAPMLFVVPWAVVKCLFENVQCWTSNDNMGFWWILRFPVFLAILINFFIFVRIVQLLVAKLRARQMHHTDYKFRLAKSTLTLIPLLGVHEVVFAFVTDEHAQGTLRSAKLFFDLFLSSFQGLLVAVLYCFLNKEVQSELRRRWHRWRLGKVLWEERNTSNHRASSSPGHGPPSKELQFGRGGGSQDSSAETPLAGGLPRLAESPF
Chain of GCGR (P47871 26-477, species assumed): as above

For `CCC(C)C(Nc1ccc(C(=O)NCCC(=O)O)cc1)c1ccc(-c2nnc(C(C)(C)C)o2)cc1` (stereo not drawn) [Compound 1-22, 3-(4-((1-(4-(5-(tert-butyl)-1,3,4-oxadiazol-2-yl)phenyl)-2-methylbutyl)amino)benzamido)propanoic acid], the IC50 stood at 10300 nM against glucagon receptor (GCGR) and 246 nM on GCGR.

With `CCOC(=O)CCNC(=O)c1ccc(NC(c2ccc(-c3nnc(C(C)(C)C)o3)cc2)C(C)C)cc1` (stereo not drawn) [Compound 1-23], the IC50 on glucagon receptor (GCGR) was 180 nM; at GCGR it was 18700 nM.

Consider `CC(C)C(Nc1ccc(C(=O)NCCC(=O)O)cc1)c1ccc(-c2nnc(C(C)(C)C)o2)cc1` (stereo not drawn) [Compound 1-24, 3-(4-((1-(4-(5-(tert-butyl)-1,3,4-oxadiazol-2-yl)phenyl)-2-methylpropyl)amino)benzamido)propanoic acid], for which the values for the IC50 at glucagon receptor (GCGR) and on GCGR were more than 30000 nM and 314 nM, respectively.

`CCOC(=O)CCNC(=O)c1ccc(NC(c2ccc(-c3nnc(-c4ccc(OC)cc4)o3)cc2)C(C)C)cc1` (stereo not drawn) [Compound 1-25, ethyl 3-(4-((l-(4-(5-(4-methoxyphenyl)-1,3,4-oxadiazol-2-yl)phenyl)-2-methylpropyl)amino)benzamido)propanoate]: the IC50 was 284 nM against glucagon receptor (GCGR) and more than 30000 nM at GCGR.

Turning to `COc1ccc(-c2nnc(-c3ccc(C(Nc4ccc(C(=O)NCCC(=O)O)cc4)C(C)C)cc3)o2)cc1` (stereo not drawn) [Compound 1-26, 3-(4-((1-(4-(5-(4-methoxyphenyl)-1,3,4-oxadiazol-2-yl)phenyl)-2-methylpropyl)amino)benzamido)propanoic acid], the IC50 worked out at 4380 nM on glucagon receptor (GCGR) and 198 nM on GCGR.

On to `CCOC(=O)CCNC(=O)c1ccc(NC(CC(C)C)c2ccc(-c3nnc(-c4ccc(F)cc4)o3)cc2)cc1` (stereo not drawn) [Compound 1-27, ethyl 3-(4-((1-(4-(5-(4-fluorophenyl)-1,3,4-oxadiazol-2-yl)phenyl)-3-methylbutyl)amino)benzamido)propanoate], for which the half-inhibitory concentration (IC50) on glucagon receptor (GCGR) was 118 nM; at GCGR, more than 30000 nM.

In the case of `CC(C)CC(Nc1ccc(C(=O)NCCC(=O)O)cc1)c1ccc(-c2nnc(-c3ccc(F)cc3)o2)cc1` (stereo not drawn) [Compound 1-28, 3-(4-((1-(4-(5-(4-fluorophenyl)-1,3,4-oxadiazol-2-yl)phenyl)-3-methylbutyl)amino)benzamido)propanoic acid], the half-maximal inhibitory concentration (IC50) on glucagon receptor (GCGR) is 4760 nM; on GCGR, 563 nM.

For `CCOC(=O)CCNC(=O)c1ccc(NC(c2ccc(-c3nnc(-c4ccc(F)cc4)o3)cc2)C(C)CC)cc1` (stereo not drawn) [Compound 1-29, ethyl 3-(4-((1-(4-(5-(4-fluorophenyl)-1,3,4-oxadiazol-2-yl)phenyl)-2-methylbutyl)amino)benzamido)propanoate], the results for the IC50 against glucagon receptor (GCGR) and on GCGR were 114 nM and 4720 nM, respectively.

With `CCC(C)C(Nc1ccc(C(=O)NCCC(=O)O)cc1)c1ccc(-c2nnc(-c3ccc(F)cc3)o2)cc1` (stereo not drawn) [Compound 1-30, 3-(4-((1-(4-(5-(4-fluorophenyl)-1,3,4-oxadiazol-2-yl)phenyl)-2-methylbutyl)amino)benzamido)propanoic acid], the IC50 was 3410 nM on glucagon receptor (GCGR) and 347 nM on GCGR.

On to `CCOC(=O)CCNC(=O)c1ccc(NC(c2ccc(-c3nnc(C(F)(F)F)o3)cc2)C(C)CC)cc1` (stereo not drawn) [Compound 1-31, ethyl 3-(4-((2-methyl-1-(4-(5-(trifluoromethyl)-1,3,4-oxadiazol-2-yl)phenyl)butyl)amino)benzamido)propanoate], for which the IC50 is 88 nM against glucagon receptor (GCGR) and more than 30000 nM on GCGR.

On to `CCC(C)C(Nc1ccc(C(=O)NCCC(=O)O)cc1)c1ccc(-c2nnc(C(F)(F)F)o2)cc1` (stereo not drawn) [Compound 1-32], for which the values for the IC50 at glucagon receptor (GCGR) and on GCGR were 3480 nM and 885 nM, respectively.

On to `CCCCC(Nc1ccc(C(=O)NCCC(=O)OCC)cc1)c1ccc(-c2nnc(C(F)(F)F)o2)cc1` (stereo not drawn) [Compound 1-33, ethyl 3-(4-((1-(4-(5-(trifluoromethyl)-1,3,4-oxadiazol-2-yl)phenyl)pentyl)amino)benzamido)propanoate], for which the IC50 at glucagon receptor (GCGR) was 142 nM; on GCGR, more than 30000 nM.

Consider `CCOC(=O)CCNC(=O)c1ccc(N[C@H](c2ccc(-c3nnc(C(F)(F)F)o3)cc2)C(C)CC)cc1` (stereo partly drawn) [Compound 1-34, ethyl 3-(4-(((1S)-2-methyl-1-(4-(5-(trifluoromethyl)-1,3,4-oxadiazol-2-yl)phenyl)butyl)amino)benzamido)propanoate], for which the IC50 worked out at 42 nM against glucagon receptor (GCGR) and 16100 nM at GCGR.

Take `CCOC(=O)CCNC(=O)c1ccc(N[C@@H](c2ccc(-c3nnc(C(F)(F)F)o3)cc2)C(C)CC)cc1` (stereo partly drawn) [Compound 1-35, ethyl 3-(4-(((1R)-2-methyl-1-(4-(5-(trifluoromethyl)-1,3,4-oxadiazol-2-yl)phenyl)butyl)amino)benzamido)propanoate]: the IC50 was 384 nM against glucagon receptor (GCGR) and more than 30000 nM on GCGR.

As for `CCC(C)[C@H](Nc1ccc(C(=O)NCCC(=O)O)cc1)c1ccc(-c2nnc(C(F)(F)F)o2)cc1` (stereo partly drawn) [Compound 1-36, 3-(4-(((1S)-2-methyl-1-(4-(5-(trifluoromethyl)-1,3,4-oxadiazol-2-yl)phenyl)butyl)amino)benzamido)propanoic acid], the results for the IC50 at glucagon receptor (GCGR) and on GCGR were 2040 nM and 359 nM, respectively.

For `CCC(C)[C@@H](Nc1ccc(C(=O)NCCC(=O)O)cc1)c1ccc(-c2nnc(C(F)(F)F)o2)cc1` (stereo partly drawn) [Compound 1-37, 3-(4-(((1R)-2-methyl-1-(4-(S-(trifluoromethyl)-1,3,4-oxadiazol-2-yl)phenyl)butyl)amino)benzamido)propanoic acid], the IC50 at glucagon receptor (GCGR) was determined as 3260 nM; at GCGR, 1640 nM.

With `CCCCC(Nc1ccc(C(=O)NCCC(=O)OC)cc1)c1ccc(-c2nnc(-c3ccccn3)o2)cc1` (stereo not drawn) [Compound 1-38, methyl 3-(4-((1-(4-(5-(pyridin-2-yl)-1,3,4-oxadiazol-2-yl)phenyl)pentyl)amino)benzamido)propanoate], the values for the IC50 against glucagon receptor (GCGR) and at GCGR were 80 nM and 1580 nM, respectively.

`CCOC(=O)CCNC(=O)c1ccc(N[C@H](c2ccc(-c3nnc(-c4ccccc4)o3)cc2)C(C)C)cc1` [Compound 1-39, (S)-ethyl 3-(4-(2-methyl-1-(4-(5-phenyl-1,3,4-oxadiazol-2-yl)phenyl)propylamino)benzamido)propanoate]: the IC50 against glucagon receptor (GCGR) was 40.3 nM; on GCGR it was 2850 nM.

With `CCOC(=O)CCNC(=O)c1ccc(N[C@@H](c2ccc(-c3nnc(-c4ccccc4)o3)cc2)C(C)C)cc1` [Compound 1-40, (R)-ethyl 3-(4-(2-methyl-1-(4-(5-phenyl-1,3,4-oxadiazol-2-yl)phenyl)propylamino)benzamido)propanoate], the figures for the IC50 against glucagon receptor (GCGR) and on GCGR were 162 nM and more than 30000 nM, respectively.

Turning to `CC(C)[C@H](Nc1ccc(C(=O)NCCC(=O)O)cc1)c1ccc(-c2nnc(-c3ccccc3)o2)cc1` [Compound 1-41, (S)-3-(4-(2-methyl-1-(4-(5-phenyl-1,3,4-oxadiazol-2-yl)phenyl)propylamino)benzamido)propanoic acid], the IC50 on glucagon receptor (GCGR) worked out at 2710 nM; on GCGR, 107 nM.

As to `CC(C)[C@@H](Nc1ccc(C(=O)NCCC(=O)O)cc1)c1ccc(-c2nnc(-c3ccccc3)o2)cc1` [Compound 1-42, (R)-3-(4-(2-methyl-1-(4-(5-phenyl-1,3,4-oxadiazol-2-yl)phenyl)propylamino)benzamido)propanoic acid], the IC50 at glucagon receptor (GCGR) amounted to 2930 nM; at GCGR, 2920 nM.

Take `CCCC[C@H](Nc1ccc(C(=O)NCCC(=O)OCC)cc1)c1ccc(-c2nnc(-c3ccccn3)o2)cc1` [Compound 1-43, ethyl (S)-3-(4-((1-(4-(5-(pyridin-2-yl)-1,3,4-oxadiazol-2-yl)phenyl)pentyl)amino)benzamido)propanoate]: the IC50 on glucagon receptor (GCGR) turned out to be 46.4 nM; on GCGR it was 1480 nM.

With `CCCC[C@@H](Nc1ccc(C(=O)NCCC(=O)OCC)cc1)c1ccc(-c2nnc(-c3ccccn3)o2)cc1` [Compound 1-44, ethyl (R)-3-(4-((1-(4-(5-(pyridin-2-yl)-1,1,3,4-oxadiazol-2-yl)phenyl)pentyl)amino)benzamido propanoate], the IC50 against glucagon receptor (GCGR) is 830 nM; on GCGR, more than 30000 nM.

Turning to `CCCC[C@H](Nc1ccc(C(=O)NCCC(=O)O)cc1)c1ccc(-c2nnc(-c3ccccn3)o2)cc1` [Compound 1-45, (S)-3-(4-((1-(4-(5-(pyridin-2-yl)-1,3,4-oxadiazol-2yl)phenyl)pentyl)amino)benzamido)propanoic acid], the figures for the IC50 on glucagon receptor (GCGR) and on GCGR were 2540 nM and 339 nM, respectively.
